Results on one molecule are retold here after patent US20240382509A1, “Cannabinoids C- and O-glycosides possessing anti-proliferative and anti-metastatic properties and process for preparation thereof” (Council of Scientific and Industrial Research, priority 2021, published 2024).

One data set deals with fR2 cells. Description: MTT cell viability assay, fR2 normal epithelial cells. The conditions noted are these: in vitro. The data set is classed as cell-based, human. As to the method:
(§1) Cell viability assay: The cell viability was determined by the standard MTT assay method. Briefly, Panc-1, HCT-116, A549, PC3, MIAPaca-2, HT-29, MDA-MB-231, MCF7 cells, and fR2cells were seeded in 96 well tissue culture plates (Nunc) at a density of 4×10^3 cells per well and treated with varying concentrations of the test compounds in triplicates. DMSO was taken as a vehicle, and its final concentration was maintained at 0.2% in the culture medium. Doxorubicin was employed as a positive control. After 44 h of incubation, MTT dye solution was added into the medium, and cells were incubated for another 4 h at 37° C. in 5% CO2. The amount of colored formazan derivatives formed was measured by taking optical density (OD) using a microplate reader (TECAN, Infinite M200 Pro) at 570 nm, and the percentage of cell viability was calculated. The IC50 values were calculated using GraphPad Prism software (Version 5.0).
For orientation: Formazan colour is commonly taken as a measure of viable cells.

Assay in data set [1]: as above
The data set is classed as cell-based, human. The conditions noted are these: human, fR2 normal epithelial cells; MTT, 48 h; normal epithelial cell line; read-out: Cytotoxicity (IC50) fR2. As to the method: as §1

Another data set has as its system HCT-116 cells. Description: MTT cell viability assay, HCT-116. The data set is classed as cell-based. The conditions noted are these: Homo sapiens, HCT-116, 48 h, read-out: Cytotoxicity (IC50) HCT-116, MTT, 48 h; colorectal adenocarcinoma cells. As for the experimental part:
as §1

In data set [2] the test system is MIAPaCa-2 cells. Nature of the data set: Matrigel invasion assay, MIAPaCa-2. The data set is classed as cell-based, human. The note with it: MIAPaCa-2, from 0.5 μM (0.5-5 μM), 36 h. As for the experimental part:
Matrigel invasion assay: MIAPaCa-2 and MDA-MB-231 cells (1×10^6) were seeded onto matrigel coated inserts and treated with compound 2a (0.5, 1.5, 3 & 5 μM) for 36 h in 5% CO2 incubator at 37° C. The upper chamber is filled with serum-free media, and the lower half consists of 10% FBS supplemented media, thus creating a gradient of chemoattractant that facilitates the migration of cells. Upon termination, the inserts were washed with PBS, and the non-migratory cells were removed from the upper chamber by using a cotton plug. Further, the cells were fixed with methanol and stained later with 0.2% crystal violet. After drying, the inserts were observed under an inverted microscope at 20× magnification, and images were taken.
Now this particular derivative was further analysed for its ability to inhibit the molecular signatures of EMT. To this end, MIAPaCa-2 cells were treated with 0.5 μM, 1.5 μM, 3 μM and 5 μM of compound 2a for 36 h and were subjected to immunoblotting to study the expression of Snail-1, Twist-1, Vimentin and E-cadherin. […] To analyse more deeply the ability of this compound to affect migration/metastasis, MIAPaCa-2 cells were seeded onto Matrigel coated inserts and were treated with 0.5 μM, 1.5 μM, 3 μM and 5 μM of compound 2a. […] Formation of invadopodia and filopodia (migratory structures) constitutes the fundamental property of cells undergoing migration. […]

The test system of data set [3] is lung adenocarcinoma cells (A549). Description: MTT cell viability assay, A549. The data set is classed as cell-based. The conditions noted are these: Homo sapiens, A549, 48 h, read-out: Cytotoxicity (IC50) A549, MTT, 48 h. As to the method: as §1
For data set [4], the system named is MIAPaCa-2 cells. Description: MTT cell viability assay, MIAPaCa-2. The note with it: Homo sapiens, MIA PaCa-2, 48 h, read-out: Cytotoxicity (IC50) MIAPaCa-2, MTT, 48 h. The data set is classed as cell-based, human. As for the experimental part: as §1

Bounds are passed on as bounds.

Broadly, the IC50 is the concentration at which inhibition is half-maximal.

As for `CCCCCc1cc(O[C@@H]2OC(CO)[C@@H](O)C(O)C2O)c2c(c1)OC(C)(C)[C@@H]1CCC(C)=C[C@@H]21` (stereo partly drawn) [Compound 2a, Δ^9-tetrahydrocannabinol-1-O-β-D-glucopyranoside], the “toxicity towards normal human breast epithelial cells” value in the data set on fR2 cells is listed as “non-toxic”. In addition, the IC50 at 48 h in data set [1] is > 100000 nM. Also, the IC50 in the data set with HCT-116 cells amounted to 2100 nM; in data set [3], 1440 nM; in the data set with MIAPaCa-2 cells [4], 1420 nM. Moreover, the “cellular invasion, Matrigel” value with MIAPaCa-2 cells [2] was “inhibition of cellular invasion”.
